# Patent US20120302573A1, “METHODS OF INHIBITING PRO MATRIX METALLOPROTEINASE ACTIVATION” (priority 2011, published 2012)
# Counter-ions that a name gives are not always drawn.
# Assays:
# [1] = molecular target: T1, proMMP13(1-268) (SEQ ID NO:7) (Homo sapiens, UniProt P45452); experiment: ThermoFluor binding assay with proMMP13(1-268)
# T1 construct: 6x-histidine tag (C); made in house; host or cells: HEK293
# Protocol: The ThermoFluor® (TF) assay is a 384-well plate-based binding assay that measures thermal stability of proteins (Biomol Screen 2001, 6, 429-40; Biochemistry 2005, 44, 5258-66). The experiments were carried out using instruments available from Johnson & Johnson Pharmaceutical Research & Development, LLC. TF dye used in all experiments was […] (1,8-ANS) (Invitrogen: A-47).
# Compounds were arranged in a pre-dispensed plate (Greiner Bio-one: 781280), wherein compounds were serially diluted in 100% DMSO across 11 columns within a series. Columns 12 and 24 were used as DMSO reference and contained no compound. For multiple compound concentration-response experiments, the compound aliquots ([…]) were robotically predispensed directly into black 384-well polypropylene PCR microplates (Abgene: TF-0384/k) using a Cartesian Hummingbird liquid handler (DigiLab, Holliston, Mass.). Following compound dispense, protein and dye solutions were added to achieve the final assay volume of 3 μL. The assay solutions were overlayed with 1 μL of silicone oil (Fluka, type DC 200: 85411) to prevent evaporation.
# (§1) Assay plates were robotically loaded onto a thermostatically controlled PCR-type thermal block and then heated from 40 to 90° C. at a ramp-rate of 1° C./min for all experiments. Fluorescence was measured by continuous illumination with UV light (Hamamatsu LC6) supplied via fiber optics and filtered through a band-pass filter (380-400 nm; >6 OD cutoff). Fluorescence emission of the entire 384-well plate was detected by measuring light intensity using a CCD camera (Sensys, Roper Scientific) filtered to detect 500±25 nm, resulting in simultaneous and independent readings of all 384 wells. A single image with 20-sec exposure time was collected at each temperature, and the sum of the pixel intensity in a given area of the assay plate was recorded vs temperature and fit to standard equations to yield the Tm (J Biomol Screen 2001, 6, 429-40).
# (§2) Thermodynamic parameters necessary for fitting compound binding for each proMMP were estimated by differential scanning calorimetry (DSC) and from ThermoFluor® data. The heat capacity of unfolding for each protein was estimated from the molecular weight and from ThermoFluor® dosing data.
# The proMMP13(1-268) (SEQ ID NO:7) protein sample preparations included a desalting buffer exchange step via a PD-10 gravity column (GE Healthcare). The desalting buffer exchange was performed prior to diluting the protein to the final assay concentration of 3.5 μM. The concentration of proMMP13(1-268) (SEQ ID NO:7) was estimated spectrophotometrically based on a calculated extinction coefficient of ε280=37000 M^−1 cm^−1, a calculated molecular weight of 30.8 kDa, and calculated pI of 5.33. ThermoFluor® reference conditions were defined as follows: 100 μg/mL proMMP13(1-268) (SEQ ID NO:7), 25 μM 1,8-ANS, pH 7.0 Buffer (50 mM HEPES pH 7.0, 100 mM NaCl, 0.001% Tween-20, 2.5 mM MgCl2, 300 μM CaCl2). The thermodynamic parameters for proMMP13(1-268) (SEQ ID NO:7) are as follows: Tm (° C.)=67 (+/−0.1), ΔUH(Tm) (cal mol^−1)=107000(+/−5000), ΔUS(Tm) (cal mol^−1 K^−1)=318, ΔUCp (cal mol^−1 K^−1)=2600.
# [2] = molecular target: T2, proMMP9(67-444;ΔFnII) (SEQ ID NO:5) (Homo sapiens, UniProt P14780, DEL216-390); experiment: ThermoFluor binding assay with proMMP9(67-444;ΔFnII)
# T2 construct: amino acid pairs including: 29-215/391-444, 67-215/391-444, and 20-215/391-445, respectively; start methionine (N); made in house; host or cells: E. coli BL21(DE3) RIL
# T2 sequence (P14780 with tags, fused parts or gaps DEL216-390): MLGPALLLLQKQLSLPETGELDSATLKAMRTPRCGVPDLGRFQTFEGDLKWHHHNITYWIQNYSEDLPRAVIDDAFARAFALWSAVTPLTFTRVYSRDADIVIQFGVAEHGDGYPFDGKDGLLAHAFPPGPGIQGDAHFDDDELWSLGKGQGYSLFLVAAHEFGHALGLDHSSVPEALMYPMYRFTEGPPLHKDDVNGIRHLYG
# Protocol: (§3) The experiments were carried out using instruments available from Johnson & Johnson Pharmaceutical Research & Development, LLC. TF dye used in all experiments was […] (1,8-ANS) (Invitrogen: A-47).
# (§4) Columns 12 and 24 were used as DMSO reference and contained no compound. […] Following compound dispense, protein and dye solutions were added to achieve the final assay volume of 3 μL.
# as §1, with “wells.” for “wells. A single image with 20-sec exposure time was collected at each temperature, and the sum of the pixel intensity in a given area of the assay plate was recorded vs temperature and fit to standard equations to yield the Tm (J Biomol Screen 2001, 6, 429-40).”
# as §2
# The protein sample preparations had to include a desalting buffer exchange step via a PD-10 gravity column (GE Healthcare).
# [3] = molecular target: T3, full-length proMMP9(1-707) activation by catalytic MMP3 (Homo sapiens, UniProt P14780, R574P); experiment: proMMP9/MMP3 P126 Activation Assay; assay type: biochemical; design: made in house; host or cells: E. coli (MMP3); settings: proMMP9 from HEK293 cells
# T3 sequence (P14780 20-707 R574P): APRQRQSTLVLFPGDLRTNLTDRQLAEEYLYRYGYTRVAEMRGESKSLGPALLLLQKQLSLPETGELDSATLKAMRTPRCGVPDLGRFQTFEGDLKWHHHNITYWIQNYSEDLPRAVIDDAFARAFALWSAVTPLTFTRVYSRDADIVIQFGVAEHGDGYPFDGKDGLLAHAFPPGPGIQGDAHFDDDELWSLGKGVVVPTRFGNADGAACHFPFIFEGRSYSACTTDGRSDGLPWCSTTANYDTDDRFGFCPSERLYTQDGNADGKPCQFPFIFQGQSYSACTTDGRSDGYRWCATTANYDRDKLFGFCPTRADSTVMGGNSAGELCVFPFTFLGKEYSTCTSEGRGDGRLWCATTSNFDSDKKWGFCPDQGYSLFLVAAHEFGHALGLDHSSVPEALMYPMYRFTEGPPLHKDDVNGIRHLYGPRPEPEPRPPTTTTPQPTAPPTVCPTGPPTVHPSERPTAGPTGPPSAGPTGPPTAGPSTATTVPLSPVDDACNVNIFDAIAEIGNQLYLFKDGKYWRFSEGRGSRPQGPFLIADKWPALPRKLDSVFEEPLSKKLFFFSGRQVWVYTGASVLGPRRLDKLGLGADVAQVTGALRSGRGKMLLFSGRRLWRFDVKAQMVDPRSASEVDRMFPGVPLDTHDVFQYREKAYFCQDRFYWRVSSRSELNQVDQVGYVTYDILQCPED
# Protocol: The assay buffer employed was 50 mM Hepes, pH 7.5, 10 mM CaCl2, 0.05% Brij-35. DMSO was included at a final concentration of 2%, arising from the test compound addition. […] The reaction volume was 50 μL. […] Initial velocities were plotted by use of a four-parameter logistics equation (GraphPad Prism® software) for determination of IC50.
# [4] = molecular target: T4, proMMP9(20-445;ΔFnII) (SEQ ID NO:6) (Homo sapiens, UniProt P14780, DEL216-390); experiment: ThermoFluor binding assay with proMMP9(20-445;ΔFnII)
# T4 construct: amino acid pairs including: 29-215/391-444, 67-215/391-444, and 20-215/391-445, respectively; start methionine (N); made in house; host or cells: E. coli BL21(DE3) RIL
# T4 sequence (P14780 with tags, fused parts or gaps DEL216-390): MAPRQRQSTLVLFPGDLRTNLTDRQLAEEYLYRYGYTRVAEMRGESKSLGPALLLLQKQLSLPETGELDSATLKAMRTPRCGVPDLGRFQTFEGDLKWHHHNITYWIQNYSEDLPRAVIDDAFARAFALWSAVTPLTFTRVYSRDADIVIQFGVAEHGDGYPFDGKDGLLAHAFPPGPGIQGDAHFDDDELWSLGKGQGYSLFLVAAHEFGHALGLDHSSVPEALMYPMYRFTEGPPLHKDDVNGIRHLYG
# Protocol: as §3, §4
# as §1, with “wells.” for “wells. A single image with 20-sec exposure time was collected at each temperature, and the sum of the pixel intensity in a given area of the assay plate was recorded vs temperature and fit to standard equations to yield the Tm (J Biomol Screen 2001, 6, 429-40).”
# as §2
# The protein sample preparations included a desalting buffer exchange step via a PD-10 gravity column (GE Healthcare).
# [5] = molecular target: T3, full-length proMMP9(1-707) activation by catalytic MMP3; experiment: ProMMP9/MMP3 DQ Gelatin Activation Assay;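 note: readout is fluorescence of quenched fluorescein gelatin cut by activated MMP9, 30 min activation at 37 °C, inhibition relative to DMSO-only controls with EDTA as blank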; assay type: biochemical; design: made in house; host or cells: COS-1 (proMMP9); E. coli (MMP3); settings: proMMP9 from COS-1 cells; read-out: ProMMP9/MMP3 DQ gel, IC50
Structure (SMILES),Kd [1],Kd [2],IC50 [3],Kd [4],IC50 [5]
"CC(=O)Nc1nc(C)c(-c2csc(Nc3ccccc3OC(C)C)n2)s1 [Example 1, N-[2-(2-Isopropoxy-phenylamino)-4′-methyl-[4,5′]bithiazolyl-2′-yl]-acetamide]",14.1 µM,1.29 µM,2.5 µM,8.68 µM,–
"Cc1nc(C)c(-c2csc(Nc3ccccc3OC(C)C)n2)s1 [Example 2, (2′,4′-Dimethyl-[4,5′]bithiazolyl-2-yl)-(2-isopropoxy-phenyl)-amine]",42.5 µM,55.3 µM,2.5 µM,> 95 µM,–
"Cc1nc(N)sc1-c1csc(Nc2ccccc2OC(C)C)n1 [Example 3, N^2-(2-Isopropoxy-phenyl)-4′-methyl-[4,5′]bithiazolyl-2,2′-diamine.TFA]",–,1.15 µM,2 µM,3.81 µM,–
"COc1ccc(F)cc1Nc1nc(-c2sc(C)nc2C)cs1 [Example 5, (2′,4′-Dimethyl-[4,5′]bithiazolyl-2-yl)-(5-fluoro-2-methoxy-phenyl)-amine.HBr]",20 µM,5.49 µM,0.71 µM,> 95 µM,–
COc1ccc(F)cc1Nc1nc(-c2sc(NC(C)=O)nc2C)cs1 [Example 6],15.1 µM,0.156 µM,0.65 µM,0.907 µM,–
"Cc1nc(C)c(-c2csc(Nc3ccccc3OC(F)(F)F)n2)s1 [Example 14, (2′,4′-Dimethyl-[4,5′]bithiazolyl-2-yl)-(2-trifluoromethoxy-phenyl)-amine]",9.12 µM,–,3.6 µM,> 95 µM,–
"CC(C)Oc1ccccc1Nc1nc(-c2cccnc2)cs1 [Example 15, (2-Isopropoxy-phenyl)-(4-pyridin-3-yl-thiazol-2-yl)-amine]",–,43.3 µM,2.5 µM,> 95 µM,–
"COc1ccc(F)cc1Nc1nc(-c2sc(NC(C)=O)nc2C)c(Br)s1 [Example 18, N-[5-Bromo-2-(5-fluoro-2-methoxy-phenylamino)-4′-methyl-[4,5′]bithiazolyl-2′-yl]-acetamide.TFA]",–,0.376 µM,2.6 µM,2.89 µM,–
"COc1ccc(Br)cc1Nc1nc(-c2sc(N)nc2C)cs1 [Example 20, N^2-(5-Bromo-2-methoxy-phenyl)-4′-methyl-[4,5′]bithiazolyl-2,2′-diamine.TFA]",–,0.414 µM,3.3 µM,2.15 µM,–
"COc1ccc(Br)cc1Nc1nc(-c2sc(C)nc2C)cs1 [Example 27, (5-Bromo-2-methoxy-phenyl)-(2′,4′-dimethyl-[4,5′]bithiazolyl-2-yl)-amine.TFA]",–,–,3.1 µM,49.9 µM,–
"COc1ccc(F)cc1Nc1nc(-c2ccc3c(c2)ncn3C)cs1 [Example 41, (5-Fluoro-2-methoxy-phenyl)-[4-(1-methyl-1H-benzoimidazol-5-yl)-thiazol-2-yl]-amine]",–,–,1.9 µM,1.94 µM,–
"COc1ccc(F)cc1Nc1nc(-c2c(C)nc(C)n2C)cs1 [Example 42, (5-Fluoro-2-methoxy-phenyl)-[4-(2,3,5-trimethyl-3H-imidazol-4-yl)-thiazol-2-yl]-amine]",5.35 µM,–,5 µM,28.8 µM,–
"COc1ccccc1Nc1nc(-c2sc(C)nc2C)cs1 [Example 64, (2′-4′-Dimethyl-[4,5′]bithiazolyl-2-yl)-(2-methoxy-phenyl)-amine]",> 95 µM,45.3 µM,–,47.5 µM,2.1 µM
"COc1ccc(OC)c(Nc2nc(-c3c[nH]c4ncccc34)cs2)c1 [Example 73, (2,5-Dimethoxy-phenyl)-[4-(1H-pyrrolo[2,3-b]pyridin-3-yl)-thiazol-2-yl]-amine]",18 µM,15.9 µM,–,25.5 µM,17.9 µM
"CCOc1ccccc1Nc1nc(-c2cn3ccccc3n2)cs1 [Example 74, (2-Ethoxy-phenyl)-(4-imidazo[1,2-a]pyridin-2-yl-thiazol-2-yl)-amine]",> 95 µM,66.1 µM,–,7.89 µM,21.1 µM
"COc1ccccc1Nc1nc(-c2cnc3cnccn23)cs1 [Example 75, (4-Imidazo[1,2-a]pyrazin-3-yl-thiazol-2-yl)-(2-methoxy-phenyl)-amine]",28.9 µM,10.1 µM,–,17.9 µM,17.9 µM
"COc1ccccc1Nc1nc(-c2c[nH]c3ncccc23)cs1 [Example 76, (2-Methoxy-phenyl)-[4-(1H-pyrrolo[2,3-b]pyridin-3-yl)-thiazol-2-yl]-amine]",57.1 µM,10.8 µM,–,27 µM,16.3 µM
"COc1ccc(F)cc1Nc1nc(-c2sc(C)nc2C)c(C)s1 [Example 77, N-(5-fluoro-2-methoxyphenyl)-2′,4′,5-trimethyl-[4,5′-bithiazol]-2-amine.HBr]",–,20.6 µM,3.8 µM,> 77 µM,–
"COc1ccc(F)cc1Nc1nc(-c2sc(C3CCN(C)CC3)nc2C)cs1 [Example 78, N-(5-fluoro-2-methoxyphenyl)-4′-methyl-2′-(1-methylpiperidin-4-yl)-[4,5′-bithiazol]-2-amine.TFA]",–,0.146 µM,0.13 µM,0.879 µM,–
"COc1ccc(F)cc1Nc1nc(-c2ccc(N3CCN(C4CC4)CC3)nc2)cs1 [Example 79, 4-(6-(4-Cyclopropylpiperazin-1-yl)pyridin-3-yl)-N-(5-fluoro-2-methoxyphenyl)thiazol-2-amine.TFA]",–,3.93 µM,1 µM,21.4 µM,–
